From PMC7744439 (European journal of medicinal chemistry, 2020)
Like-named read-outs stand apart in the source and are kept apart here.

Legend:
[1] = target: HDAC1 (Homo sapiens, UniProt Q13547); test: HDAC1 enzymatic inhibition; format: biochemical
[2] = target: HDAC2 (Homo sapiens, UniProt Q92769); test: HDAC2 enzymatic inhibition; format: biochemical
[3] = target: T1, HDAC6 (Homo sapiens, UniProt Q9UBN7); test: HDAC6 enzymatic inhibition; format: biochemical
T1 sequence (Q9UBN7 1-1215): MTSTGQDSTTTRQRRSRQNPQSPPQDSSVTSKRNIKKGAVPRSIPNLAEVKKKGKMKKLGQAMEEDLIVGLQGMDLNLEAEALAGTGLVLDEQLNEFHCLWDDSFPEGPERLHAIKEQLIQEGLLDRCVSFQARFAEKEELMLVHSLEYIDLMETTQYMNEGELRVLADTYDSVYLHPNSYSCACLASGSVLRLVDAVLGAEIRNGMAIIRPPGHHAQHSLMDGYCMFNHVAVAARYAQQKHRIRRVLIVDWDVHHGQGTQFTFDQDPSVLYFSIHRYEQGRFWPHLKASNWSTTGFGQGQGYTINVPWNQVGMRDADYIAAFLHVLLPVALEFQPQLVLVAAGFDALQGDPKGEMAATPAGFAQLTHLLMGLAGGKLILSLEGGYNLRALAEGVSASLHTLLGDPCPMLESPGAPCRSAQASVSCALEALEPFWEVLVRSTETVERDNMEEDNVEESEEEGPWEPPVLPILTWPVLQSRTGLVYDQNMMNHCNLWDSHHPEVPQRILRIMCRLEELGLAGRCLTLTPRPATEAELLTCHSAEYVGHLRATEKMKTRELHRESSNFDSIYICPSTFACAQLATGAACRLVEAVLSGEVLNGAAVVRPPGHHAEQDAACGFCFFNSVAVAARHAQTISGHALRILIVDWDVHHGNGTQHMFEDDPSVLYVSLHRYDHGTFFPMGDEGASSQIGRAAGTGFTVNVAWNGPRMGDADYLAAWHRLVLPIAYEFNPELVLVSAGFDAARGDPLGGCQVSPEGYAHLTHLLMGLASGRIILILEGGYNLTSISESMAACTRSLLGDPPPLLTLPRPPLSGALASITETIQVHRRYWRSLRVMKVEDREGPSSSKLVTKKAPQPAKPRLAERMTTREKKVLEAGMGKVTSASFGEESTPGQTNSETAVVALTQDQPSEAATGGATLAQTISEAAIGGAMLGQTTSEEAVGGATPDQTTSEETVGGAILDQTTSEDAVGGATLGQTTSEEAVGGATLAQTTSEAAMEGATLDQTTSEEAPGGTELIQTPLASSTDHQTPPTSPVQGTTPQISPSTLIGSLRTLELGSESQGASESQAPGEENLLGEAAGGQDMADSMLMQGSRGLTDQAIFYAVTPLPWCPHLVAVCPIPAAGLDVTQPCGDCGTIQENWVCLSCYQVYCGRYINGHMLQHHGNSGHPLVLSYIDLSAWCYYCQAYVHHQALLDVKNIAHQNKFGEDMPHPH

[4] = system: total HDACs; settings: read-out: Total HDAC (IC50); cited from earlier work
[5] = target: T1, HDAC6; settings: read-out: HDAC6 IC50, cited from earlier work
[6] = system: Caco-2 cells; settings: cited from earlier work; for permeability classification: moderately permeable = 2 × 10^−6 cm/s < Papp(A–B) < 20 × 10^−6 cm/s
[7] = mice, 400 mg/kg, IP, plasma; cited from earlier work
[8] = IP, cited from earlier work; for behavior of the mice: 0.5 to 400 mg/kg
[9] = system: Ac-H4 in spleen, brain and liver; settings: 0.5 to 400 mg/kg, after 4 h treatment, dose-dependent; cited from earlier work
[10] = system: prostate cancer cells (PC-3 and LNCap); settings: cited from earlier work
[11] = system: nonmalignant cells (267-B1 and RWPE-1); settings: cited from earlier work
[12] = system: PC-3 tumors; settings: cited from earlier work; for tumor growth: IP, 28 days, 0.5 mg/kg; for mortality or body-weight loss: during the treatment, 0.5 mg/kg IP
[13] = system: primary cortical neurons; settings: cited from earlier work; for neuroprotection: at 10 μM
[14] = system: monomorphic malignant human glioma cells (A172, U373MG, and T98G); settings: cited from earlier work
[15] = system: N2a cells overexpressing hAPP; settings: 5 μM, 24 h; cited from earlier work
[16] = system: primary cortical neurons; settings: 5 μM, 24 h; cited from earlier work
[17] = system: hAPP 3 × Tg mice; settings: 50 mg/kg, IP, four weeks, cited from earlier work
[18] = system: dendritic spine density; settings: 50 mg/kg, IP; cited from earlier work
[19] = target: T2, HDAC8 (Homo sapiens, UniProt Q9BY41); settings: read-out: HDAC8 IC50; cited from earlier work
T2 sequence (Q9BY41 1-377): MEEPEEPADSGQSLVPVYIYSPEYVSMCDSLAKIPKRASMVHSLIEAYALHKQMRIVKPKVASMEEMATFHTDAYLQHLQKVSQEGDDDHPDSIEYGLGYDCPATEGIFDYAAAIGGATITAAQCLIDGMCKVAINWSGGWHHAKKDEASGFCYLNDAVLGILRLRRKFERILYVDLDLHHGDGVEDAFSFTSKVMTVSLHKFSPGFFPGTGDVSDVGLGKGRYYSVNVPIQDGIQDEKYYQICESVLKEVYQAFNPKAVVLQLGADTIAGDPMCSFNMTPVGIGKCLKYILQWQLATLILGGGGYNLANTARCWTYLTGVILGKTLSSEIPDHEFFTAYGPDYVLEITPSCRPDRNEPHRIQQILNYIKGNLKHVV

Sequence of HDAC1 (Q13547 whole entry, species assumed): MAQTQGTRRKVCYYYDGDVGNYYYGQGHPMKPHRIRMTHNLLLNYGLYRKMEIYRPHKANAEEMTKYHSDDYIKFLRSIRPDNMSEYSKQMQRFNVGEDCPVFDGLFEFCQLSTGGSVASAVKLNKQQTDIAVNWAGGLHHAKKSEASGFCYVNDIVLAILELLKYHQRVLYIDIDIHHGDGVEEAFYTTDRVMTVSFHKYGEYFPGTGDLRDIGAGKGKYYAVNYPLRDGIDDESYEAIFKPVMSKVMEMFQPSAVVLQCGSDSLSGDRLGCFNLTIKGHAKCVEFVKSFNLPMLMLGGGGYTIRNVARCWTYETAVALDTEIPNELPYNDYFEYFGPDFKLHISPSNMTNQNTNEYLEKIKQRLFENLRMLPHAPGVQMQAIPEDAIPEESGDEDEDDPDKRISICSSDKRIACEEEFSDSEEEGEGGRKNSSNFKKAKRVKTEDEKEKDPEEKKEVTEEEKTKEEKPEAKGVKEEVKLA
Sequence of HDAC2 (Q92769 whole entry, species assumed): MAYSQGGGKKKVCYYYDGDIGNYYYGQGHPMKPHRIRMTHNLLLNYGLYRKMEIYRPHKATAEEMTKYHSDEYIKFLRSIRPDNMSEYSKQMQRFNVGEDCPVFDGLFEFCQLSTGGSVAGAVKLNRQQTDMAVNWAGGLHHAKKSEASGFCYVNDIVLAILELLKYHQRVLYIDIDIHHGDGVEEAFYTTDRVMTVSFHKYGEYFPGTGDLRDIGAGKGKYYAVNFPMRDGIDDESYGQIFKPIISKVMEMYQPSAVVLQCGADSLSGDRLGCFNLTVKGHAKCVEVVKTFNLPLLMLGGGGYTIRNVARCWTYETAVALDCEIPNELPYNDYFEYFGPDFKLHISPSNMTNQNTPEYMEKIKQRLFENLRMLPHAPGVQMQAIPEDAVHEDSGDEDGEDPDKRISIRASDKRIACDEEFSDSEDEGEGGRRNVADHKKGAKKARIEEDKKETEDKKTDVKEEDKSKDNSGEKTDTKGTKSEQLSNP

Q: Which results are given for `O=C(CS)NCCCCCC(=O)Nc1ccccc1` [Compound 11]?
A: IC50 [1]: 3760 nM; IC50 [2]: > 30000 nM; IC50 [3]: 340 nM; SI, HDAC1/6 selectivity index ([3]; HDAC1/HDAC6, text prints -folds): 11.1

Q: With `CN(C)c1ccc(C(=O)NCCCCCNC(=O)CS)cc1` [Compound 20] as the compound, how does the IC50 [4] read?
A: 200 nM

Q: And the IC50 ([5]; Table 1)?
A: 110 nM

Q: What about the permeability classification [6] of the same compound?
A: moderately permeable

Q: And the CL [7]?
A: 4.87 ± 0.2 L/h

Q: What about the “behavior of the mice” value [8] of the same compound?
A: remain normal

Q: What about the “Ac-H4 levels in the spleen” value [9] of the same compound?
A: significantly increased

Q: And the anti-proliferative effects [10]?
A: low-micromolar levels of anti-proliferative effects

Q: What about the “inhibitory effects on nonmalignant cells” value [11] of the same compound?
A: no apparent inhibitory effects

Q: And the tumor growth [12]?
A: significant inhibition on the tumor growth

Q: What about the “mortality or body-weight loss” value [12] of the same compound?
A: no mortality or body-weight loss

Q: With `Cc1onc(-c2ccccc2)c1C(=O)NCCCCCNC(=O)CS` [Compound 34] as the compound, how does the neuroprotection [13] read?
A: full neuroprotection

Q: For `Cc1onc(-c2ccccc2)c1C(=O)NCCCCCNC(=O)[C@H](C)S` [Compound 37], which “prevention of glutathione depletion” value [13] is on record?
A: ability to prevent glutathione depletion

Q: For `Cc1onc(-c2ccccc2)c1COCCCCCNC(=O)[C@H](C)S` [Compound 41], which “prevention of glutathione depletion” value [13] is on record?
A: ability to prevent glutathione depletion

Q: Which neuroprotection [13] does the source give for `Cc1onc(-c2ccccc2)c1C=CCCCCCNC(=O)C(C)S` (stereo not drawn) [Compound 45] here?
A: neuroprotective effects

Q: For `Cc1noc(-c2ccccc2)c1C#CCCCCCNC(=O)C(C)S` (stereo not drawn) [Compound 49], which neuroprotection [13] is on record?
A: neuroprotective effects

Q: With `Cc1noc(-c2cccc(F)c2)c1C#CCCCCCNC(=O)C(C)S` (stereo not drawn) [Compound 50] as the compound, how does the neuroprotection [13] read?
A: neuroprotective effects

Q: For `O=C(CS)NCCCCCC(=O)Nc1cccc2cccnc12` [Compound 63], which IC50 [4] is on record?
A: 40 nM

Q: And the IC50 ([5]; Table 3)?
A: 90 nM

Q: What about the “transporters responsible for the efflux” value [6] of the same compound?
A: P-glycoprotein (P-gp) and multidrug resistance-associated protein 1 (MRP1)

Q: What about the permeability classification [6] of the same compound?
A: moderately permeable

Q: And the CL [7]?
A: 4.05 ± 0.15 L/h

Q: What about the “time to full recovery” value ([8]; 400 mg/kg) of the same compound?
A: ≤ 1 h

Q: And the “behavior of the mice” value [8]?
A: incapacitated 15 min after treating

Q: What about the “Ac-H4 levels in the spleen” value [9] of the same compound?
A: significantly increased

Q: And the anti-proliferative effects [10]?
A: low-micromolar levels of anti-proliferative effects

Q: And the “inhibitory effects on nonmalignant cells” value [11]?
A: no apparent inhibitory effects

Q: What about the “levels of Ac-H3” value ([14]; A172 and U373MG cells) of the same compound?
A: without influence

Q: What about the “levels of Ac-Tub” value ([14]; A172 and U373MG cells) of the same compound?
A: significantly enhanced

Q: And the “cell migration and invasion” value ([14]; A172 cells)?
A: reduced cell migration and invasion

Q: And the “phosphorylation of FAK/STAT3” value [14]?
A: suppress the phosphorylation of FAK/STAT3

Q: What about the “cytotoxicity in glioma cells” value ([14]; concentrations up to 50 μM) of the same compound?
A: did not show cytotoxicity

Q: What about the “increase of cell surface APP” value [15] of the same compound?
A: two-fold

Q: And the “increase of cell surface APP” value [16]?
A: two-fold

Q: And the Aβ levels [17]?
A: decreased

Q: What about the “phosphorylated tau (Thr181) levels” value [17] of the same compound?
A: decreased

Q: And the “learning and memory deficits” value ([17]; aged mice (9-10-month-old))?
A: alleviated the learning and memory deficits

Q: What about the dendritic spine density [18] of the same compound?
A: promotes dendritic spine density

Q: What about the tumor growth [12] of the same compound?
A: significant inhibition on the tumor growth

Q: And the “mortality or body-weight loss” value [12]?
A: no mortality or body-weight loss

Q: For `O=C(CS)NCCCCCn1ccc2cc(Cl)c(Cl)cc21` [Compound 74], which IC50 [1] is on record?
A: > 30000 nM

Q: What about the IC50 [3] of the same compound?
A: 2330 nM

Q: What about the “SI, HDAC1/6 selectivity index” value [3] of the same compound?
A: >12.8

Q: What does the source list for `O=C(NO)c1ccccc1` [phenylhydroxamate, reference compound]?
A: IC50 [5]: 115 nM; IC50 [19]: 1900 nM
